Measurements published in US20210330756A1, “Acetylation of Miro1” (University of South Carolina, priority 2020, published 2021).

Legend:
[1] = tested on: Ac-α-tubulin; assay: Immunoblotting for Ac-α-tubulin in adult DRG neurons; assay type: cell-based, rat
Protocol: We tested for this specificity in the adult DRG neurons from above by immunoblotting. […] (A) Number of mitochondria in growth cones after exposing DRG cultures to 10 μM TubA versus vehicle (control) for 1 h is shown as average fold-change in number of mitochondria per growth cone±SEM (n=13 axons across three culture preparations; *, P≤0.05 by one-way ANOVA with Bonferroni post hoc analysis). (B) Representative EMs of Remak bundles (arrowheads) in naive Sciatic nerve and nerves after 2 h vehicle (DMSO) or TubA injection are shown. Arrows indicate mitochondria in the unmyelinated axons. Note that a Schwann cell nucleus (asterisk) is seen in the Remak bundle for DMSO image but not the other two micrographs (scale bar=3 μm). (C) Quantification of number of mitochondria per unmyelinated axon from EM images as in B is shown as average±SEM (n≥5; *****, P≤0.0001 by one-way ANOVA with Bonferroni post hoc analysis). (D-F) Quantification for indicated parameters for mitochondrial transport in sciatic nerve in vivo using tetramethylrhodamine, ethyl ester, perchlorate to visualize mitochondria is shown.
For immunoblotting, protein lysates or immunoprecipitates were denatured by boiling in Laemmli sample buffer, fractionated by SDS-PAGE, and transferred to nitrocellulose membranes. Blots were blocked for 1 h at room temperature with 5% nonfat dry milk in TBS with 0.1% Tween 20 (TBST). Primary antibodies diluted in 5% BSA in TBST were added to the membranes and incubated overnight at 4° C. with rocking. Primary antibodies consisted of rabbit anti-Myc (1:2,000; Cell Signaling; 71D10), rabbit anti-RHOT1 antibody (1:1,000; Aviva Systems Biology; ARP44817 P050), rabbit anti-HDAC6 antibody (1:2,000; Cell Signaling; 7558), rabbit anti-ERK1 (1:5,000; Abcam; ab32537), and affinity-purified custom rabbit anti-Miro1-AcK105 (1:2,500; Twiss laboratory, see above) antibodies. For the anti-Miro1-AcK105 antibody, preimmune and test-bleed sera were used at 1:1,000 dilutions to initially evaluate for specificity. […] Signals were detected using ECL Prime (GE Healthcare) after extensive washing.

[2] = tested on: sciatic nerve axonal mitochondria; assay: In vivo imaging of axonal mitochondrial transport in sciatic nerve; set-up: species or system mouse
Protocol: Together, these experiments indicate that HDAC6 activity impacts axonal mitochondrial transport in vitro and in vivo.
Sciatic nerves were exposed in live, isofluorane-anaesthetized animals (female C57BL6/J mice aged 41-42 d after birth) as previously reported (Gibbs et al., 2016; Sleigh and Schiavo, 2016). Briefly, 10-μ1 glass micropipettes (Drummond Scientific; 5-000-1001-X10) were pulled (Mohan et al., 2015) and used to inject 2 μl of 1.5 mM TubA or DMSO (Sigma-Aldrich; D2650) vehicle control in sterile saline (0.9% wt/vol) into the proximal aspect of the exposed sciatic nerve. 2 μM tetramethylrhodamine, ethyl ester, perchlorate (Thermo Fisher Scientific; T669), and 0.1% (wt/vol) bromophenol blue (Sigma-Aldrich; B5525) were included in the injected solution to label mitochondria and confirm successful injection beneath the perineurium, respectively.
Body temperature was maintained using a heat pad during surgery and drug incubation. Sciatic nerves were imaged from 20 to 90 min after injection using an inverted LSM 780 laser scanning microscope (Zeiss) Plan-Apochromat 63×/1.4 NA Oil DIC M27 objective within an environmental chamber prewarmed and set to 37° C. An area containing labeled axons was selected and imaged for 444-1,000 s at 100×digital zoom every ˜4 s (1,024×1,024 pixels, 0.5-μs pixel dwell time, 1% laser power). Four animals were imaged per day (two per treatment). Image series were converted into AVI files, and mitochondrial dynamics were assessed using Kinetic Imaging Software. Mitochondria were included in analyses when they could be tracked for at least five consecutive frames. At least 10 mitochondria (mean of 49.1) across at least three axons (mean of 4.38) per animal were tracked, and all analyses were performed blinded to treatment.

Compound: CN1CCc2c(c3ccccc3n2Cc2ccc(C(=O)NO)cc2)C1 [TubA, tubastatin]
- Ac-α-tubulin levels ([1]; 1 μM): clear increase in Ac-α-tubulin levels
- Ac-α-tubulin levels ([1]; 10 μM): clear increase in Ac-α-tubulin levels
- Ac-α-tubulin levels ([1]; 100 μM): clear increase in Ac-α-tubulin levels
- pausing of moving mitochondria ([2]; retrogradely versus anterogradely moving, after TubA): significantly increased pausing for retrogradely versus anterogradely moving mitochondria
- ratio of anterogradely to retrogradely moving axonal mitochondria ([2]; sciatic nerve injection, 2 μl of 1.5 mM, in vivo imaging): increased
- significance of antero/retrograde ratio and speed of movement vs vehicle control ([2]; sciatic nerve injection, in vivo imaging): neither this nor the speed of movement showed significant differences
